Measured values published in ChEMBL document CHEMBL2385027, “Evaluation of 2'-α-fluorine modified nucleoside phosphonates as potential inhibitors of HCV polymerase” (Bioorg Med Chem Lett, 2013).

How the values were obtained:
[1] = Cytotoxicity against human HuH7 cells; format: cell-based, Huh-7
Hepatitis C virus [2] = assay: Antiviral activity against Hepatitis C virus infected in human Huh7 cells assessed as inhibition of HCV replication; format: functional, organism-based, Hepacivirus hominis; conditions: Huh-7
Hepatitis C virus [3] = assay: Inhibition of HCV 1b NS5b polymerase; set-up: species or system Hepatitis C virus subtype 1b
[4] = Cytostatic activity against human MT4 cells; format: cell-based

Molecule `Nc1ncnc2c1ncn2[C@@H]1O[C@H](/C=C/P(=O)(O)O)[C@@H](O)[C@H]1F` [listing 1 of 2 here] has a CC50 [1] greater than 250 µM and an EC50 (Hepatitis C virus [2]) of 132 µM.

With `Nc1ncnc2c1ncn2[C@@H]1O[C@H](/C=C/P(=O)(O)O)[C@@H](O)[C@H]1F` [listing 2 of 2 here] the IC50 (Hepatitis C virus [3]) was 2.1 µM.

Work on `O=c1ccn([C@@H]2O[C@H](/C=C/P(=O)(O)O)[C@@H](O)[C@H]2F)c(=O)[nH]1` [listing 1 of 2 here] yielded a CC50 [1] greater than 250 µM and an EC50 (Hepatitis C virus [2]) greater than 250 µM.

Work on `O=c1ccn([C@@H]2O[C@H](COP(=O)(O)O)[C@@H](O)[C@H]2F)c(=O)[nH]1` yielded a CC50 [1] greater than 250 µM and an EC50 (Hepatitis C virus [2]) greater than 250 µM.

Work on `CCCCOC(=O)[C@H](C)NP(=O)(/C=C/[C@H]1O[C@@H](n2cnc3c(N)ncnc32)[C@H](F)[C@@H]1O)N[C@@H](C)C(=O)OCCCC` yielded a CC50 [4] of 18 µM, a CC50 [1] of 113 µM and an EC50 (Hepatitis C virus [2]) of 58 µM.

Molecule `Nc1ncnc2c1ncn2[C@@H]1O[C@H](COP(=O)(O)O)[C@@H](O)[C@H]1F` has a CC50 [1] greater than 250 µM and an EC50 (Hepatitis C virus [2]) of 134 µM.

Molecule `Nc1ncnc2c1ncn2[C@@H]1O[C@H](CCP(=O)(O)O)[C@@H](O)[C@H]1F` [listing 1 of 2 here] has a CC50 [1] greater than 500 µM and an EC50 (Hepatitis C virus [2]) greater than 500 µM.

In the case of `O=c1ccn([C@@H]2O[C@H](/C=C/P(=O)(O)O)[C@@H](O)[C@H]2F)c(=O)[nH]1` [listing 2 of 2 here], the IC50 (Hepatitis C virus [3]) is reported as 31 µM.

Work on `CCCCOC(=O)[C@H](C)NP(=O)(CC[C@H]1O[C@@H](n2cnc3c(N)ncnc32)[C@H](F)[C@@H]1O)N[C@@H](C)C(=O)OCCCC` yielded a CC50 [4] of 36 µM, a CC50 [1] of 24 µM and an EC50 (Hepatitis C virus [2]) of 11 µM.

In the case of `Nc1ccn([C@@H]2O[C@H](COP(=O)(O)O)[C@@H](O)[C@H]2F)c(=O)n1`, the CC50 [1] is reported as greater than 250 µM and the EC50 (Hepatitis C virus [2]) is reported as 15 µM.

With `CCCCOC(=O)[C@H](C)NP(=O)(/C=C/[C@H]1O[C@@H](n2ccc(N)nc2=O)[C@H](F)[C@@H]1O)N[C@@H](C)C(=O)OCCCC` the CC50 [4] was greater than 250 µM, the CC50 [1] was greater than 250 µM and the EC50 (Hepatitis C virus [2]) was 134 µM.

With `Nc1ccn([C@@H]2O[C@H](/C=C/P(=O)(O)O)[C@@H](O)[C@H]2F)c(=O)n1` [listing 1 of 2 here] the CC50 [1] was greater than 250 µM and the EC50 (Hepatitis C virus [2]) was 76 µM.

With `Nc1ncnc2c1ncn2[C@@H]1O[C@H](CCP(=O)(O)O)[C@@H](O)[C@H]1F` [listing 2 of 2 here] the IC50 (Hepatitis C virus [3]) was 4.6 µM.

Molecule `Nc1ncnc2c1ncn2[C@@H]1O[C@H](CO)[C@@H](O)[C@H]1F` [2'-BETA-FLUORO-2',3'-DEOXYADENOSINE] has an IC50 (Hepatitis C virus [3]) of 102 µM.

With `CCCCOC(=O)[C@H](C)NP(=O)(/C=C/[C@H]1O[C@@H](n2ccc(=O)[nH]c2=O)[C@H](F)[C@@H]1O)N[C@@H](C)C(=O)OCCCC` the CC50 [4] was 92 µM, the CC50 [1] was greater than 250 µM and the EC50 (Hepatitis C virus [2]) was 14.5 µM.

With `Nc1ccn([C@@H]2O[C@H](CO)[C@@H](O)[C@H]2F)c(=O)n1` the IC50 (Hepatitis C virus [3]) was 1.85 µM.

In the case of `Nc1ccn([C@@H]2O[C@H](/C=C/P(=O)(O)O)[C@@H](O)[C@H]2F)c(=O)n1` [listing 2 of 2 here], the IC50 (Hepatitis C virus [3]) is reported as 1.9 µM.

With `O=c1ccn([C@@H]2O[C@H](CO)[C@@H](O)[C@H]2F)c(=O)[nH]1` the IC50 (Hepatitis C virus [3]) was 12.8 µM.
